Experimental data: patent US12428412B2 (DANA-FARBER CANCER INSTITUTE, INC., priority 2018, dated 2025)

Key:
[1] = In vivo study blood analysis; conditions: mice, after 14 days
Excerpt: Blood samples were taken from mice treated daily with 40 mpk intraperitoneal injection (IP) after 14 days.

[2] = Tolerability in human CRBN knock in mice; format: in vivo
Method: CPD 1 was tested in mice for maximum tolerated dose (MTD) (FIG. 6A). The mice were treated with 10 mg/kg (mpk), 20 mpk, and 40 mpk with 4 mice in each group. The compound was also tested in human CRBN knock in mice, the blood samples were collected after 21 day treatment. All the tested blood samples were normal.

## C[C@H](N(Cc1ccc(F)cc1)C(=O)CN1C(=O)O[C@@]2(CCc3cc(NC(=O)CCCCCCCCCCCNc4ccc5c(c4)C(=O)N(C4CCC(=O)NC4=O)C5=O)ccc32)C1=O)C(F)(F)F (stereo partly drawn) [CPD 1, 12-((2-(2,6-dioxopiperidin-3-yl)-1,3-dioxoisoindolin-5-yl)amino)-N—((R)-3′-(2-((4-fluorobenzyl)((S)-1,1,1-trifluoropropan-2-yl)amino)-2-oxoethyl)-2′,4′-dioxo-2,3-dihydrospiro[indene-1,5′-oxazolidin]-5-yl)dodecanamide]
[1]; 40 mg/kg IP daily
  ALP: 51 U/L
  ALT: 54 U/L
  AST: 37 U/L
  Albumin: 3.2 g/dL
  Basophils: 0.02 K/μL
  Creatinine: 0.17 mg/dL
  Eosinophils: 0.10 K/μL
  GGTP: 5
  Hematocrit: 41.2%
  Hemoglobin: 13.35 g/dL
  Lymphocytes: 1.80 K/μL
  Monocytes: 0.35 K/μL
  Neutrophils: 1.2 K/μL
  Platelet: 528 K/μL
  WBC: 3.46 K/μL
[1]; 40 mpk IP daily
  toxicity by blood sample measurements: not toxic
[2]; human CRBN knock in mice, after 21 day treatment
  blood samples: normal
[2]; humanized CRBN mice
  toxicity: no toxicity was observed
